{
  "source": "paper PMC4050382",
  "about": "“A novel proteasome inhibitor suppresses tumor growth via targeting both 19S proteasome deubiquitinases and 20S proteolytic peptidases” (Scientific Reports, 2014)",
  "target": "T1, 20S proteasome (CT-like peptidase, β5 subunit) (Homo sapiens, UniProt P28074)",
  "T1 construct": "gene PSMB5; purified 20S proteasome; with 20S proteasome",
  "T1 sequence (P28074 60-263)": "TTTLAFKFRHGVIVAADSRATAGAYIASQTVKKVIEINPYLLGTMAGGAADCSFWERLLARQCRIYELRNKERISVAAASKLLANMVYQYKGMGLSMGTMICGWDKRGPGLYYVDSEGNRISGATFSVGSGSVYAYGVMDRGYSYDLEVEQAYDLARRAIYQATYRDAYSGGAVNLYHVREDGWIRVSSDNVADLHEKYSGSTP",
  "assay": "fluorogenic CT-like peptidase assay with purified […] proteasome",
  "assay_type": "biochemical",
  "data": [
    {"smiles": "[O-][n+]1ccccc1[S][Cu][S]c1cccc[n+]1[O-]", "note": "[L1, CuPT]", "values": [
      {"measurement": "IC50", "value": "~6", "unit": "µM"}
    ]}
  ]
}
